Experimental data from PubChem BioAssay (NCI).
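Five compound concentrations were applied to cells in 96-well plates for 48 hours; endpoints were derived by simple linear interpolation of the resulting dose-response curve. TGI: total growth inhibition.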

Legend:
Test in all cases: NCI anticancer screen, dose series, 48 h
[1] = system: SN12C renal
[2] = system: OVCAR-4 ovarian
[3] = system: RXF 393 renal
[4] = system: HL-60(TB) leukemia
[5] = system: SW-620 colon
[6] = system: MCF7 breast
[7] = system: OVCAR-8 ovarian
[8] = system: HOP-92 NSCLC
[9] = system: SR leukemia
[10] = system: OVCAR-5 ovarian
[11] = system: EKVX NSCLC
[12] = system: DU-145 prostate
[13] = system: HOP-62 NSCLC
[14] = system: PC-3 prostate
[15] = system: A549 NSCLC
[16] = system: A498 renal
[17] = system: HT29 colon
[18] = system: KM12 colon
[19] = system: MOLT-4 leukemia
[20] = system: NCI-H23 lung
[21] = system: UO-31 renal
[22] = system: HS 578T breast
[23] = system: SNB-19 CNS
[24] = system: ACHN renal
[25] = system: NCI/ADR-RES ovarian
[26] = system: COLO 205 colon
[27] = system: M14 melanoma
[28] = system: SF-539 CNS
[29] = system: T-47D breast
[30] = system: RPMI-8226 leukemia
[31] = system: HCT-116 colon
[32] = system: SK-MEL-28 melanoma
[33] = system: K-562 leukemia
[34] = system: HCT-15 colon
[35] = system: LOX IMVI melanoma
[36] = system: OVCAR-3 ovarian
[37] = system: CAKI-1 renal
[38] = system: MDA-N
[39] = system: SF-295 CNS
[40] = system: MDA-MB-231 breast
[41] = system: U251 CNS
[42] = system: SNB-75 CNS
[43] = system: CCRF-CEM leukemia
[44] = system: MDA-MB-435
[45] = system: NCI-H522 lung
[46] = system: UACC-257 melanoma
[47] = system: SK-MEL-5 melanoma
[48] = system: HCC-2998 colon
[49] = system: SF-268 CNS
[50] = system: MALME-3M melanoma
[51] = system: SK-MEL-2 melanoma
[52] = system: NCI-H460 lung
[53] = system: TK-10 renal
[54] = system: SK-OV-3 ovarian
[55] = system: UACC-62 melanoma
[56] = system: 786-0 renal
[57] = system: NCI-H226 lung
[58] = system: IGROV1 ovarian
[59] = system: BT-549 breast

## CCN(CC)CC1CCCCN1CC(=O)N1c2ccccc2NC(=O)c2ccccc21 (stereo not given)
[1]
  TGI: > 100 µM
[2]
  TGI: > 100 µM
[3]
  TGI: > 100 µM
[4]
  TGI: > 100 µM
[5]
  TGI: > 100 µM
[6]
  TGI: > 100 µM
[7]
  TGI: > 100 µM
[8]
  TGI: > 100 µM
[9]
  TGI: > 100 µM
[10]
  TGI: > 100 µM
[11]
  TGI: > 100 µM
[12]
  TGI: > 100 µM
[13]
  TGI: > 100 µM
[14]
  TGI: > 100 µM
[15]
  TGI: > 100 µM
[16]
  TGI: > 100 µM
[17]
  TGI: > 100 µM
[18]
  TGI: > 100 µM
[19]
  TGI: > 100 µM
[20]
  TGI: > 100 µM
[21]
  TGI: 44.5 µM
[22]
  TGI: > 100 µM
[23]
  TGI: > 100 µM
[24]
  TGI: > 100 µM
[25]
  TGI: > 100 µM
[26]
  TGI: > 100 µM
[27]
  TGI: > 100 µM
[28]
  TGI: > 100 µM
[29]
  TGI: > 100 µM
[30]
  TGI: > 100 µM
[31]
  TGI: > 100 µM
[32]
  TGI: > 100 µM
[33]
  TGI: > 100 µM
[34]
  TGI: > 100 µM
[35]
  TGI: > 100 µM
[36]
  TGI: > 100 µM
[37]
  TGI: > 100 µM
[38]
  TGI: > 100 µM
[39]
  TGI: > 100 µM
[40]
  TGI: > 100 µM
[41]
  TGI: > 100 µM
[42]
  TGI: > 100 µM
[43]
  TGI: > 100 µM
[44]
  TGI: > 100 µM
[45]
  TGI: > 100 µM
[46]
  TGI: > 100 µM
[47]
  TGI: > 100 µM
[48]
  TGI: > 100 µM
[49]
  TGI: > 100 µM
[50]
  TGI: > 100 µM
[51]
  TGI: > 100 µM
[52]
  TGI: > 100 µM
[53]
  TGI: > 100 µM
[54]
  TGI: > 100 µM
[55]
  TGI: > 100 µM
[56]
  TGI: > 100 µM
[57]
  TGI: > 100 µM
[58]
  TGI: > 100 µM

## NC(=S)C1=C(N)Oc2c(c(=O)oc3ccccc23)C1c1ccc(Br)cc1 (stereo not given)
[1]
  TGI: > 100 µM
[2]
  TGI: > 100 µM
[4]
  TGI: > 100 µM
[5]
  TGI: > 100 µM
[6]
  TGI: > 100 µM
[7]
  TGI: > 100 µM
[8]
  TGI: > 100 µM
[9]
  TGI: 63.2 µM
[10]
  TGI: > 100 µM
[11]
  TGI: > 100 µM
[12]
  TGI: > 100 µM
[13]
  TGI: > 100 µM
[14]
  TGI: > 100 µM
[15]
  TGI: > 100 µM
[16]
  TGI: > 100 µM
[17]
  TGI: > 100 µM
[20]
  TGI: > 100 µM
[21]
  TGI: > 100 µM
[23]
  TGI: > 100 µM
[24]
  TGI: > 100 µM
[25]
  TGI: > 100 µM
[26]
  TGI: > 100 µM
[27]
  TGI: > 100 µM
[28]
  TGI: > 100 µM
[31]
  TGI: > 100 µM
[59]
  TGI: > 100 µM
[32]
  TGI: > 100 µM
[33]
  TGI: > 100 µM
[34]
  TGI: > 100 µM
[35]
  TGI: > 100 µM
[36]
  TGI: > 100 µM
[37]
  TGI: > 100 µM
[38]
  TGI: > 100 µM
[39]
  TGI: > 100 µM
[40]
  TGI: > 100 µM
[41]
  TGI: > 100 µM
[42]
  TGI: > 100 µM
[43]
  TGI: > 100 µM
[44]
  TGI: > 100 µM
[45]
  TGI: > 100 µM
[46]
  TGI: > 100 µM
[47]
  TGI: > 100 µM
[48]
  TGI: > 100 µM
[49]
  TGI: > 100 µM
[50]
  TGI: > 100 µM
[51]
  TGI: > 100 µM
[52]
  TGI: > 100 µM
[53]
  TGI: > 100 µM
[54]
  TGI: > 100 µM
[55]
  TGI: > 100 µM
[56]
  TGI: > 100 µM
[58]
  TGI: > 100 µM

## C(CCCCc1nnc(N2CCOCC2)o1)CCCc1nnc(N2CCOCC2)o1
[1]
  TGI: > 100 µM
[2]
  TGI: > 100 µM
[3]
  TGI: > 100 µM
[4]
  TGI: > 100 µM
[5]
  TGI: > 100 µM
[6]
  TGI: > 100 µM
[7]
  TGI: > 100 µM
[8]
  TGI: > 100 µM
[10]
  TGI: > 100 µM
[11]
  TGI: > 100 µM
[12]
  TGI: > 100 µM
[13]
  TGI: > 100 µM
[14]
  TGI: > 100 µM
[15]
  TGI: > 100 µM
[16]
  TGI: > 100 µM
[17]
  TGI: > 100 µM
[18]
  TGI: > 100 µM
[19]
  TGI: > 100 µM
[20]
  TGI: > 100 µM
[21]
  TGI: > 100 µM
[23]
  TGI: > 100 µM
[24]
  TGI: > 100 µM
[25]
  TGI: > 100 µM
[26]
  TGI: > 100 µM
[27]
  TGI: > 100 µM
[28]
  TGI: > 100 µM
[31]
  TGI: > 100 µM
[59]
  TGI: > 100 µM
[32]
  TGI: > 100 µM
[33]
  TGI: > 100 µM
[34]
  TGI: > 100 µM
[35]
  TGI: > 100 µM
[36]
  TGI: > 100 µM
[37]
  TGI: > 100 µM
[38]
  TGI: > 100 µM
[39]
  TGI: > 100 µM
[40]
  TGI: > 100 µM
[41]
  TGI: > 100 µM
[42]
  TGI: > 100 µM
[43]
  TGI: > 100 µM
[44]
  TGI: > 100 µM
[46]
  TGI: > 100 µM
[47]
  TGI: > 100 µM
[51]
  TGI: > 100 µM
[52]
  TGI: > 100 µM
[53]
  TGI: > 100 µM
[54]
  TGI: > 100 µM
[56]
  TGI: > 100 µM
[57]
  TGI: > 100 µM
[58]
  TGI: > 100 µM
